Laboratory results taken from US8999983B2, “Modulators of Hec1 activity and methods therefor” (Taivex Therapeutics Corporation, priority 2011, dated 2015).

Columns and labels:
Hela = test: Antiproliferation assay (MTS), HeLa cells; format: cell-based; settings: Homo sapiens, 96 h, Table 1, read-out: Antiproliferative IC50 Hela
Procedure, shortened: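 Cells seeded after overnight attachment were treated in triplicate for 96 h at 37 °C, 5% CO2, final DMSO below 1%. Viability read by MTS absorbance; concentration-response curves fitted by linear regression against DMSO controls.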

Hec1-Nek2 interaction = molecular target: T1, Hec1-Nek2 interaction (Homo sapiens, UniProt O14777); test: Co-immunoprecipitation analysis of Hec1-Nek2 interaction in K562 cells; format: cell-based; settings: K562 cells treated 8 or 16 hours
T1 construct: endogenous in cells; host or cells: K562
T1 sequence (O14777 1-642): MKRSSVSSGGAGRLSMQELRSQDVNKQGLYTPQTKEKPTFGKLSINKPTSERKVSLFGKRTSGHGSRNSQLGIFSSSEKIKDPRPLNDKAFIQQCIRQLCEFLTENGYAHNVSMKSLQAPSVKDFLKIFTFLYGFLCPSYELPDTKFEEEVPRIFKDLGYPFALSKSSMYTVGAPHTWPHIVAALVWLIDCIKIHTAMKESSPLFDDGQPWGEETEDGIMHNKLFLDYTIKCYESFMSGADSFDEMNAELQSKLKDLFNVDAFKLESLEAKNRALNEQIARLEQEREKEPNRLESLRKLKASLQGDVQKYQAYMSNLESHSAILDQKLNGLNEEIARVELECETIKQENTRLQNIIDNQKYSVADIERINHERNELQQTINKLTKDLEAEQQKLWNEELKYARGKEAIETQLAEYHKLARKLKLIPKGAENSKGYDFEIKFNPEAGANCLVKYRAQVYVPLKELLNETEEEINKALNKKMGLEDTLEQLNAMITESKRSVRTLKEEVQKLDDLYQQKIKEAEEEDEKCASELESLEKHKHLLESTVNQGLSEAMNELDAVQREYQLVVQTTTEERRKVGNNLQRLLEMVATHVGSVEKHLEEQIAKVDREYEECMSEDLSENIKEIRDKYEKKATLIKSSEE
Description: Co-Immunoprecipitation Analysis: Co-immunoprecipitation (Co-IP)/Western blotting assays were performed to assess the effects of Hec1 inhibitory compounds on Hec1-Nek2 interaction. K562 cells were treated with Hec1 inhibitory compounds as indicated. After harvesting and washing once with cold PBS, cells were lysed on ice in lysis buffer (50 mM Tris (pH 7.5), 250 mM NaCl, 5 mM EDTA (pH 8.0), 0.1% NP-40, 1 mM PMSF, 50 mM NaF, and protease inhibitor cocktail (P/N P8340 Sigma Aldrich, St. Louis Mo. USA) for 30 min. Lysates were then centrifuged at 12,000 rpm at 4° C. for 20 minutes. Input supernatant was incubated in the presence of anti Nek2 antibody (rabbit anti-Nek2, Rockland Immunochemicals, Gilbertsville, Pa. 19525 USA) or IgG control antibody for 2 h at 4° C., followed by the addition protein G coupled to agarose beads (GE Healthcare, Anaheim Calif. 92805 USA). After mixing for 1 h at 4° C., the agarose beads were centrifuged at 12,000 rpm at 4° C. for 20 seconds. The beads were then washed 5 times with cold Co-IP buffer, boiled in SDS-PAGE sample buffer followed by SDS-PAGE. The presence of Hec1 and Nek2 was detected by Western blotting with mouse monoclonal antibodies directed to Hec1 (GeneTex, Inc., Irvine Calif. 92606 USA) and Nek2 (BD Biosciences, San Jose Calif. 95131 USA). […]

Nek2 protein = test: Immunoblot of Nek2 protein level in K562 cells; format: cell-based; settings: 1 μM, up to 24 hrs
Description: Immunoblot Analysis: For immunoblotting experiments, cells were plated in a 6-well culture plate and cultured overnight. Cells were incubated with the test compounds for the indicated time and whole cell lysate was harvested by adding 1×SDS-PAGE Sample Buffer (62.5 mM Tris-HCl (pH 6.8 at 25° C.), 2% w/v SDS, 10% glycerol, 50 mM DTT, and 0.01% w/v bromophenol blue or phenol red). Proteins were separated by SDS-PAGE electrophoresis and transferred to PVDF membrane. Protein expression was immunoblotted using various primary antibodies and detected using Immobilon Western Chemiluminescent HRP Substrate (Millipore, Billerica Mass. 01821 USA). Antibodies used include anti-Cleaved Caspase3, (Rabbit, Cell Signaling Technology, Danvers Mass. 01923 USA); anti-PARP (Rabbit, Cell Signaling Technology, Danvers Mass. 01923 USA); anti-MCL-1 (mouse, BD Biosciences, San Jose Calif. 95131 USA); anti-XIAP (rabbit, Cell Signaling Technology, Danvers Mass. 01923 USA); anti-Bcl-2 (mouse, Santa Cruz Biotechnology, Santa Cruz Calif. 95060); anti-Cyclin BI (mouse, BD Biosciences, San Jose Calif. 95131 USA); anti-Cyclin D1 (mouse, Santa Cruz Biotechnology, Santa Cruz Calif. 95060); Anti-Nek2 (mouse, BD Biosciences, San Jose Calif. 95131 USA); Anti-HEC1, (rabbit, GeneTex, Inc., Irvine Calif. 92606 USA); and anti-actin (mouse, Millipore, Billerica Mass. 01821 USA). […]

HeLa cell = test: Immunostaining and microscopy, metaphase chromosomal misalignment; format: cell-based; settings: compared to control (DMSO)
Description: Immunostaining and Microscopy: Cells were grown on polylysine-coated coverslips. Cells were gently washed with BRB80 buffer (80 mM piperazine-N,N′-bis(2-ethanesulfonic acid) (PIPES) pH 6.8, 5 mM EGTA, 1 mM MgCl2) before fixation with cold 100% methanol or 4% paraformaldehyde in BRB80 or phosphate-buffered saline (PBS). Following permeabilization with 0.4% Triton X-100, cells were blocked with 2% bovine serum albumin (BSA) in PBS and then incubated with anti-α-Tubulin antibodies (mouse, FITC Conjugate; Sigma Aldrich, St. Louis Mo. USA) diluted in 2% BSA in PBS. DAPI (4′,6′-diamidino-2-phenylindole) staining was applied after secondary antibody incubation, and cells were mounted on cover slides with Prolong gold antifade reagent (Life Technologies, Carlsbad Calif. USA 92008). Images were captured with a Zeiss Axioplan 2 microscope equipped with a deconvolution module or with a Zeiss LSM-510 META laser scanning confocal microscope (Carl Zeiss Microscopy, Thomwood N.Y. 10594 USA).
After fixation, cells are stained with anti-tubulin antibody and DAPI to stain for microtubules and DNA, respectively, and imaged. […] Fluorescent images were taken of the cells and the percentage of cells with metaphase misalignment were counted and recorded.

Huh-7 xenograft = test: Mouse xenograft study, Huh-7 liver cancer; format: in vivo; settings: Huh-7 liver cancer xenograft, nude mice

COCCOc1cnc(Sc2cc(C)c(-c3csc(NC(=O)c4ccncc4)n3)c(C)c2)cn1 [Compound 27, N-(4-{4-(5-(2-methoxyethoxy)pyrazin-2-ylthio)-2,6-dimethylphenyl}thiazol-2-yl)isonicotinamide]
IC50 (Hela): 0.0211 µM
Hec1/Nek2 interaction (Hec1 in Nek2 immunoprecipitates) (Hec1-Nek2 interaction): significantly disrupted Hec1/Nek2 interaction
Nek2 protein level (Nek2 protein): induced a reduction of Nek2 protein levels
number of cells with metaphase misalignment (HeLa cell): time-dependent increase in the number of cells with metaphase misalignment
xenograft tumor outgrowth (Huh-7 xenograft): inhibition of xenograft tumor outgrowth
